These results are taken from US9636409B2, “Enzyme and receptor modulation using covalent conjugates of alpha,alpha-disubstituted glycine esters” (GlaxoSmithKline Intellectual Property Development Limited, priority 2008, dated 2017).

Usually IC50 stands for the point on the concentration scale where inhibition reaches its midpoint.

Like-named read-outs stand apart in the source and are kept apart here.

Test [1] relates to phosphorylation of MAPKAP-2 in HUT 78 cells. The test is described as follows: p38 MAP Kinase cellular assay: inhibition of phosphorylation of MAPKAP2 in HUT 78 cells. Type of test: cell-based. Conditions: Table 2. The protocol:
(§1) p38 MAP Kinase Cellular Assay: Inhibition of Phosphorylation of MAPKAP2
(§2) U937 or HUT78 cells were plated in RPMI 1640, and were incubated at 37° C., 5% CO2 for 18 hours. 10 mM stocks of compounds were diluted media/0.1% DMSO to give a log or semi-log dilution series. The wells for ‘no treatment’ and ‘anisomycin’ were treated with 0.1% DMSO only. The cells were incubated at 37° C., 5% CO2 for a further 4 hours. Anisomycin was added to all wells except ‘no treatment’ at a final concentration of 10 μM. The cells were incubated at 37° C., 5% CO2 for 30 minutes before harvest. Plates were stood on ice whilst harvesting, and all following steps were carried out at 4° C. The cells were pelleted at 1000 rpm for 10 minutes at 4° C., the media aspirated, and the pellet washed with cold PBS. The pellets were lysed in 120 μl of SDS lysis buffer (62.5 mM Tris, pH 6.8, 2% SDS, 10% glycerol, 50 mM DTT, with protease inhibitors and phosphatase inhibitors added according to the manufacturers' recommendations). After 30 minutes on ice, the samples were sonicated for 5 seconds before centrifugation at 13,000 rpm 4° C. for 10 minutes to remove cell debris. 10 μl of the resulting gel samples were loaded per lane on NOVEX 4-12% Bis-Tris MOPS gels. Membranes from western transfer of gels were blotted with anti-phospho MAPKAP2, anti-phospho HSP27 and anti GAPDH according to the manufacturers' Instructions. Signal was visualised using HRP-Hnked anti-rabbit or anti-mouse antibodies, ECL reagent and ECL film. IC50 values for the various compounds were visualised from the resulting photographic images, using both band-shift and signal intensity.

The target of another test is T1, p38 MAP Kinase α (Homo sapiens, UniProt Q16539).
T1 construct: purchased Upstate (Dundee UK)
Briefly: p38 MAP Kinase enzyme assay. The settings on record: Table 1 (biology); compound as such, Ester for Example 1; read-out: Inhibition of P38 (IC50 nM). The format is biochemical. The protocol:
p38 MAP Kinase Enzyme Assay
The ability of compounds to inhibit p38 MAPα Kinase activity was measured in an assay performed by Upstate (Dundee UK). In a final reaction volume of 25 μL, p38 MAP Kinase α (5-10 mU) is incubated with 25 mM Tris pH 7.5, 0.02 mM EGTA, 0.33 mg/mL myelin basic protein, 10 mM MgAcetate and [γ-^33P-ATP](specific activity approx. 500 cpm/pmol, concentration as required). The reaction is initiated by the addition of the MgATP mix. After incubation for 40 minutes at room temperature, the reaction is stopped by the addition of 5 μL of a 3% phosphoric acid solution. 10 μL of the reaction is then spotted onto a P30 filtermat and washed three times for 5 minutes in 75 mM phosphoric acid and once in methanol prior to drying and scintillation counting.
Duplicate data points are generated from a 1/3 log dilution series of a stock solution in DMSO. Nine dilutions steps are made from a top concentration of […], and a ‘no compound’ blank is included. The standard radiometric filter-binding assay is performed at an ATP concentration at, or close to, the Km. Data from scintillation counts are collected and subjected to free-fit analysis by Prism software. From the curve generated, the concentration giving 50% inhibition is determined and reported.

Test [2] deals with phosphorylation of MAPKAP-2 in U937 cells. The test is described as follows: p38 MAP Kinase cellular assay: inhibition of phosphorylation of MAPKAP2 in U937 cells. The settings on record: for IC50: Homo sapiens, U-937. Type of test: cell-based. The protocol: as §1, §2

T1 sequence (Q16539 whole entry): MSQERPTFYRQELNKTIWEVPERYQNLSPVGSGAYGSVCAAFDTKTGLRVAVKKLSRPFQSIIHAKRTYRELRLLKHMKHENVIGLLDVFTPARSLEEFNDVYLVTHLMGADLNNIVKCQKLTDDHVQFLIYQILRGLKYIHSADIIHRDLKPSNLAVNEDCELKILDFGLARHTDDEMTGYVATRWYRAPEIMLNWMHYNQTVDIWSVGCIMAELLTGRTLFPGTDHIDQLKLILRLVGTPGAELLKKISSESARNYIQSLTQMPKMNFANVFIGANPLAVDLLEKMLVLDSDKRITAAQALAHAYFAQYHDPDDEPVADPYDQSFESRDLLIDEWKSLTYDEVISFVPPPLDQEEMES

Turning to `Nc1c(C(=O)c2ccc(F)cc2F)ccc(=O)n1-c1ccccc1` [Compound I, reference compound], the IC50 in test [1] (Homo sapiens, HuT78, HUT 78 non-monocyte cell line) came out at 450 nM; on p38 MAP Kinase α it was 50 nM; in test [2] (Table 1 (biology), U937 cells, read-out: Inhibition of phosphorylation of MAPKAP-2 in U937 cells (IC50)), 300 nM; in test [2] (Table 2, U937 monocyte cell line, read-out: Inhibition of phosphorylation of MAPKAP-2 in U937 cells (IC50, nM) (monocyte cell line)), 300 nM. The “Ratio IC50s in HUT 78 to U937 cells” value in test [1] (MAPKAP-2 phosphorylation IC50s) is given as 1.5. The “Ratio cell IC50s to enzyme IC50” value in test [2] (U937 MAPKAP-2 IC50 to P38 enzyme IC50) is 6. Also, the “potency in monocytic versus non monocytic cell lines (MAPKAP-2 phosphorylation)” value in test [2] (U937 versus HUT 78) is listed as “equipotent”.
